According to patent US20240408169A1 (priority 2023, published 2024):
*1 amine or outer side, *2 acyl side, *3 side chain or, on linkers, in order; H or OH if unused. Where a SMILES comes first, the peptide text is derived from it. Bridges are numbered along the chain shown (N, C = ends). [ ]: non-standard residue; d: D form. The star is where a group is joined. X52 = CN1C[C@@H]2C[C@H]1CN2c1ccc(-c2ccc(Cl)cc2C[C@@H](C(=O)[*:2])N(C)[*:1])cc1; X3 = COCCOCCN1CCN(c2ccc(-c3ccc(Cl)cc3C[C@@H](C(=O)[*:2])N(C)[*:1])cc2)CC1; X50 = CN([C@@H](Cc1cc(Cl)ccc1-c1ccc(N2CCN(C3COC3)CC2)cc1)C(=O)[*:2])[*:1]; X43 = CC(C)N1CCN(c2ccc(-c3ccc(Cl)cc3C[C@@H](C(=O)[*:2])N(C)[*:1])cc2)CC1; X98 = CN1CC2(C1)OCc1cc(-c3ccc(Cl)cc3C[C@@H](C(=O)[*:2])N(C)[*:1])ccc12; X107 = CN([C@@H](Cc1cc(Cl)ccc1-c1ccc(-c2cnn(C)c2)cc1)C(=O)[*:2])[*:1]; X114 = CN([C@@H](Cc1cc(Cl)ccc1-c1ccc(OCCN2CCOCC2)cc1)C(=O)[*:2])[*:1]; X40 = CN1CCN(Cc2ccc(-c3ccc(Cl)cc3C[C@@H](C(=O)[*:2])N(C)[*:1])cc2)CC1; X80 = CN1CC=C(c2ccc(-c3ccc(Cl)cc3C[C@@H](C(=O)[*:2])N(C)[*:1])cc2)CC1; X31 = CN1CCC(c2ccc(-c3ccc(Cl)cc3C[C@@H](C(=O)[*:2])N(C)[*:1])cc2)CC1; X71 = CN([C@@H](Cc1cc(Cl)ccc1-c1ccc(N2CCOCC2)c(F)c1)C(=O)[*:2])[*:1]; X108 = CN([C@@H](Cc1cc(Cl)ccc1-c1ccc(CN2CCOCC2)cc1)C(=O)[*:2])[*:1]; X12 = CN1CCN(c2ccc(-c3ccc(F)cc3C[C@@H](C(=O)[*:2])N(C)[*:1])cc2)CC1; X81 = COc1cc(N2CCOCC2)ccc1-c1ccc(Cl)cc1C[C@@H](C(=O)[*:2])N(C)[*:1]; X115 = CN([C@@H](Cc1cc(Cl)ccc1-c1ccc(N2CCNCC2)cc1)C(=O)[*:2])[*:1]; X93 = CN([C@@H](Cc1cc(Cl)ccc1-c1ccc(OC2CCOCC2)cc1)C(=O)[*:2])[*:1]; NMehhhLys(Me) = CN([C@@H](CCCCCCCN(C)[*:3])C(=O)[*:2])[*:1]; cBuCO(3,3-F2-1-CF3) = O=C(C1(C(F)(F)F)CC(F)(F)C1)*; Pro(trans-4-F) = O=C(O)[C@@H]1C[C@@H](F)CN1; Gly(cPr) = N[C@H](C(=O)O)C1CC1

How the values were obtained:
CyclinB1/CDK1 = molecular target: T1, CyclinB1/CDK1 (Homo sapiens, UniProt P14635); experiment: Fluorescence Polarization (FP) competitive binding assay, Cyclin B1/Cdk1; details: 10 nM Cyclin B1/Cdk1, 2 nM FAM probe; average of 2-3 independent experiments; read-out: Cyclin B FP IC50;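 note: fluorescence polarization read after equilibration at room temperature, with IC50 taken from serially diluted dose-response curves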
T1 construct: purchased Eurofins, discovery 14-450

CyclinA2/CDK2 = molecular target: T2, CyclinA2/CDK2 (Homo sapiens, UniProt P20248); experiment: Fluorescence Polarization (FP) competitive binding assay, Cyclin A2/Cdk2; details: 8 nM Cyclin A2/Cdk2, 2 nM FAM probe; average of 2-3 independent experiments; read-out: Cyclin A FP IC50;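 note: plates equilibrated two hours at room temperature before polarization reading, IC50 fitted from eight-concentration compound titration curves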
T2 construct: purchased CRELUX Protein Services

OVCAR3 cells = experiment: MTT proliferation assay, OVCAR3; format: cell-based; details: 5 days compound exposure, 1:3 serial dilution starting at 10 μM;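 note: compound given as an 8- or 10-point series, one day after plating, with exposure covering roughly 3-4 cell doublings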
NCI-H1048 cells = experiment: MTT proliferation assay, NCI-H1048; format: cell-based; details: 5 days compound exposure, 1:3 serial dilution starting at 10 μM;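 note: Dose-response in 96-well plates over 8 or 10 concentration points, with exposure spanning 3-4 cell doublings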
CyclinE1/CDK2 = molecular target: T3, CyclinE1/CDK2 (Homo sapiens, UniProt P24864); experiment: Fluorescence Polarization (FP) competitive binding assay, Cyclin E1/Cdk2; details: 10 nM Cyclin E1/Cdk2, 2 nM FAM probe; average of 2-3 independent experiments; read-out: Cyclin E FP IC50;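 note: readings taken after two-hour equilibration at room temperature in HEPES buffer with NaCl, DTT, NP-40 and BSA, IC50 fitted from eight-concentration serial dilution series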
T3 construct: purchased Eurofins, discovery 14-475

WI-38 cells = experiment: MTT proliferation assay, WI-38; format: cell-based; details: 3 days compound exposure, 1:3 serial dilution starting at 10 μM;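 note: Eight- or ten-point dilution series, with exposure length chosen to span about three to four cell doublings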

Row | SMILES | IC50 (CyclinB1/CDK1) [nM] | IC50 (CyclinA2/CDK2) [nM] | GI50 (OVCAR3 cells) [nM] | GI50 (NCI-H1048 cells) [nM] | IC50 (CyclinE1/CDK2) [nM] | GI50 (WI-38 cells) [nM]
1 | CC(C)C[C@@H]1NC(=O)[C@@H](N(C)C(=O)[C@@H](NC(=O)[C@@H]2C[C@@H](F)CN2C(=O)C2(C(F)(F)F)CC(F)(F)C2)C2CC2)CCCCCCCN(C)C(=O)[C@H](Cc2cc(Cl)ccc2-c2ccc(-c3cnn(C)c3)cc2)N(C)C1=O [Example 338] ({cBuCO(3,3-F2-1-CF3)}-[Pro(trans-4-F)][Gly(cPr)][NMehhhLys(Me)]L[X107]; lactam 3-C) | 20 | 30 | 20 | 20 | 1700 | 18900
2 | CC(C)C[C@@H]1NC(=O)[C@@H](N(C)C(=O)[C@@H](NC(=O)[C@@H]2C[C@@H](F)CN2C(=O)C2(C(F)(F)F)CC(F)(F)C2)C2CC2)CCCCCCCN(C)C(=O)[C@H](Cc2cc(Cl)ccc2-c2ccc(OCCN3CCOCC3)cc2)N(C)C1=O [Example 339] ({cBuCO(3,3-F2-1-CF3)}-[Pro(trans-4-F)][Gly(cPr)][NMehhhLys(Me)]L[X114]; lactam 3-C) | 20 | 20 | 10 | 10 | 400 | 5620
3 | CC(C)C[C@@H]1NC(=O)[C@@H](N(C)C(=O)[C@@H](NC(=O)[C@@H]2C[C@@H](F)CN2C(=O)C2(C(F)(F)F)CC(F)(F)C2)C2CC2)CCCCCCCN(C)C(=O)[C@H](Cc2cc(Cl)ccc2-c2ccc(OC3CCOCC3)cc2)N(C)C1=O [Example 340] ({cBuCO(3,3-F2-1-CF3)}-[Pro(trans-4-F)][Gly(cPr)][NMehhhLys(Me)]L[X93]; lactam 3-C) | 20 | 20 | 20 | 20 | 1650 | 17300
4 | CC(C)C[C@@H]1NC(=O)[C@@H](N(C)C(=O)[C@@H](NC(=O)[C@@H]2C[C@@H](F)CN2C(=O)C2(C(F)(F)F)CC(F)(F)C2)C2CC2)CCCCCCCN(C)C(=O)[C@H](Cc2cc(Cl)ccc2-c2ccc(N3CCNCC3)cc2)N(C)C1=O [Example 341] ({cBuCO(3,3-F2-1-CF3)}-[Pro(trans-4-F)][Gly(cPr)][NMehhhLys(Me)]L[X115]; lactam 3-C) | 20 | 20 | 10 | 10 | 510 | 2440
5 | CC(C)C[C@@H]1NC(=O)[C@@H](N(C)C(=O)[C@@H](NC(=O)[C@@H]2C[C@@H](F)CN2C(=O)C2(C(F)(F)F)CC(F)(F)C2)C2CC2)CCCCCCCN(C)C(=O)[C@H](Cc2cc(Cl)ccc2-c2ccc(N3CCN(C4COC4)CC3)cc2)N(C)C1=O [Example 346] ({cBuCO(3,3-F2-1-CF3)}-[Pro(trans-4-F)][Gly(cPr)][NMehhhLys(Me)]L[X50]; lactam 3-C) | 20 | 20 | 10 | 10 | 360 | 3680
6 | CC(C)C[C@@H]1NC(=O)[C@@H](N(C)C(=O)[C@@H](NC(=O)[C@@H]2C[C@@H](F)CN2C(=O)C2(C(F)(F)F)CC(F)(F)C2)C2CC2)CCCCCCCN(C)C(=O)[C@H](Cc2cc(Cl)ccc2-c2ccc(N3CCN(C(C)C)CC3)cc2)N(C)C1=O [Example 347] ({cBuCO(3,3-F2-1-CF3)}-[Pro(trans-4-F)][Gly(cPr)][NMehhhLys(Me)]L[X43]; lactam 3-C) | 20 | 20 | 10 | 10 | 650 | 1810
7 | CC(C)C[C@@H]1NC(=O)[C@@H](N(C)C(=O)[C@@H](NC(=O)[C@@H]2C[C@@H](F)CN2C(=O)C2(C(F)(F)F)CC(F)(F)C2)C2CC2)CCCCCCCN(C)C(=O)[C@H](Cc2cc(Cl)ccc2-c2ccc(N3CCOCC3)c(F)c2)N(C)C1=O [Example 348] ({cBuCO(3,3-F2-1-CF3)}-[Pro(trans-4-F)][Gly(cPr)][NMehhhLys(Me)]L[X71]; lactam 3-C) | 20 | 20 | 10 | 10 | 880 | 18000
8 | CC(C)C[C@@H]1NC(=O)[C@@H](N(C)C(=O)[C@@H](NC(=O)[C@@H]2C[C@@H](F)CN2C(=O)C2(C(F)(F)F)CC(F)(F)C2)C2CC2)CCCCCCCN(C)C(=O)[C@H](Cc2cc(Cl)ccc2-c2ccc(C3=CCN(C)CC3)cc2)N(C)C1=O [Example 351] ({cBuCO(3,3-F2-1-CF3)}-[Pro(trans-4-F)][Gly(cPr)][NMehhhLys(Me)]L[X80]; lactam 3-C) | 20 | 20 | 10 | 10 | 970 | 1780
9 | CC(C)C[C@@H]1NC(=O)[C@@H](N(C)C(=O)[C@@H](NC(=O)[C@@H]2C[C@@H](F)CN2C(=O)C2(C(F)(F)F)CC(F)(F)C2)C2CC2)CCCCCCCN(C)C(=O)[C@H](Cc2cc(F)ccc2-c2ccc(N3CCN(C)CC3)cc2)N(C)C1=O [Example 353] ({cBuCO(3,3-F2-1-CF3)}-[Pro(trans-4-F)][Gly(cPr)][NMehhhLys(Me)]L[X12]; lactam 3-C) | 20 | 20 | 10 | 10 | 220 | 3490
10 | CC(C)C[C@@H]1NC(=O)[C@@H](N(C)C(=O)[C@@H](NC(=O)[C@@H]2C[C@@H](F)CN2C(=O)C2(C(F)(F)F)CC(F)(F)C2)C2CC2)CCCCCCCN(C)C(=O)[C@H](Cc2cc(Cl)ccc2-c2ccc3c(c2)COC32CN(C)C2)N(C)C1=O [Example 355] ({cBuCO(3,3-F2-1-CF3)}-[Pro(trans-4-F)][Gly(cPr)][NMehhhLys(Me)]L[X98]; lactam 3-C) | 20 | 20 | 10 | 10 | 1760 | 2770
11 | COCCOCCN1CCN(c2ccc(-c3ccc(Cl)cc3C[C@H]3C(=O)N(C)CCCCCCC[C@H](N(C)C(=O)[C@@H](NC(=O)[C@@H]4C[C@@H](F)CN4C(=O)C4(C(F)(F)F)CC(F)(F)C4)C4CC4)C(=O)N[C@@H](CC(C)C)C(=O)N3C)cc2)CC1 [Example 356] ({cBuCO(3,3-F2-1-CF3)}-[Pro(trans-4-F)][Gly(cPr)][NMehhhLys(Me)]L[X3]; lactam 3-C) | 20 | 20 | 10 | 10 | 340 | 3430
12 | CC(C)C[C@@H]1NC(=O)[C@@H](N(C)C(=O)[C@@H](NC(=O)[C@@H]2C[C@@H](F)CN2C(=O)C2(C(F)(F)F)CC(F)(F)C2)C2CC2)CCCCCCCN(C)C(=O)[C@H](Cc2cc(Cl)ccc2-c2ccc(N3C[C@@H]4C[C@H]3CN4C)cc2)N(C)C1=O [Example 357] ({cBuCO(3,3-F2-1-CF3)}-[Pro(trans-4-F)][Gly(cPr)][NMehhhLys(Me)]L[X52]; lactam 3-C) | 20 | 30 | 50 | 20 | 1970 | 3140
13 | CC(C)C[C@@H]1NC(=O)[C@@H](N(C)C(=O)[C@@H](NC(=O)[C@@H]2C[C@@H](F)CN2C(=O)C2(C(F)(F)F)CC(F)(F)C2)C2CC2)CCCCCCCN(C)C(=O)[C@H](Cc2cc(Cl)ccc2-c2ccc(C3CCN(C)CC3)cc2)N(C)C1=O [Example 358] ({cBuCO(3,3-F2-1-CF3)}-[Pro(trans-4-F)][Gly(cPr)][NMehhhLys(Me)]L[X31]; lactam 3-C) | 20 | 20 | 10 | 10 | 550 | 2130
14 | CC(C)C[C@@H]1NC(=O)[C@@H](N(C)C(=O)[C@@H](NC(=O)[C@@H]2C[C@@H](F)CN2C(=O)C2(C(F)(F)F)CC(F)(F)C2)C2CC2)CCCCCCCN(C)C(=O)[C@H](Cc2cc(Cl)ccc2-c2ccc(CN3CCOCC3)cc2)N(C)C1=O [Example 359, (2S,4R)—N—((S)-2-(((3S,6S,9S)-3-((4-chloro-4′-(morpholinomethyl)-[1,1′-biphenyl]-2-yl)methyl)-6-isobutyl-1,4-dimethyl-2,5,8-trioxo-1,4,7-triazacyclohexadecan-9-yl)(methyl)amino)-1-cyclopropyl-2-oxoethyl)-1-(3,3-difluoro-1-(trifluoromethyl)cyclobutane-1-carbonyl)-4-fluoropyrrolidine-2-carboxamide] ({cBuCO(3,3-F2-1-CF3)}-[Pro(trans-4-F)][Gly(cPr)][NMehhhLys(Me)]L[X108]; lactam 3-C) | 20 | 20 | 10 | 10 | 680 | 4560
15 | CC(C)C[C@@H]1NC(=O)[C@@H](N(C)C(=O)[C@@H](NC(=O)[C@@H]2C[C@@H](F)CN2C(=O)C2(C(F)(F)F)CC(F)(F)C2)C2CC2)CCCCCCCN(C)C(=O)[C@H](Cc2cc(Cl)ccc2-c2ccc(CN3CCN(C)CC3)cc2)N(C)C1=O [Example 360] ({cBuCO(3,3-F2-1-CF3)}-[Pro(trans-4-F)][Gly(cPr)][NMehhhLys(Me)]L[X40]; lactam 3-C) | 20 | 20 | 10 | 10 | 860 | 2720
16 | COc1cc(N2CCOCC2)ccc1-c1ccc(Cl)cc1C[C@H]1C(=O)N(C)CCCCCCC[C@H](N(C)C(=O)[C@@H](NC(=O)[C@@H]2C[C@@H](F)CN2C(=O)C2(C(F)(F)F)CC(F)(F)C2)C2CC2)C(=O)N[C@@H](CC(C)C)C(=O)N1C [Example 361] ({cBuCO(3,3-F2-1-CF3)}-[Pro(trans-4-F)][Gly(cPr)][NMehhhLys(Me)]L[X81]; lactam 3-C) | 20 | 50 | 10 | 30 | 1840 | 14300
